Among the data in US20090018134A1, “Compounds - 945” (AstraZeneca AB, priority 2007, published 2009) are IC50 values, retold here.

As usually defined, the IC50 is the midpoint of a concentration-inhibition curve.

Each structure is given as a SMILES string.

In the test the target is T1, mTOR (Homo sapiens, UniProt P42345).
T1 construct: FLAG; made in house
T1 sequence (P42345 1362-2549): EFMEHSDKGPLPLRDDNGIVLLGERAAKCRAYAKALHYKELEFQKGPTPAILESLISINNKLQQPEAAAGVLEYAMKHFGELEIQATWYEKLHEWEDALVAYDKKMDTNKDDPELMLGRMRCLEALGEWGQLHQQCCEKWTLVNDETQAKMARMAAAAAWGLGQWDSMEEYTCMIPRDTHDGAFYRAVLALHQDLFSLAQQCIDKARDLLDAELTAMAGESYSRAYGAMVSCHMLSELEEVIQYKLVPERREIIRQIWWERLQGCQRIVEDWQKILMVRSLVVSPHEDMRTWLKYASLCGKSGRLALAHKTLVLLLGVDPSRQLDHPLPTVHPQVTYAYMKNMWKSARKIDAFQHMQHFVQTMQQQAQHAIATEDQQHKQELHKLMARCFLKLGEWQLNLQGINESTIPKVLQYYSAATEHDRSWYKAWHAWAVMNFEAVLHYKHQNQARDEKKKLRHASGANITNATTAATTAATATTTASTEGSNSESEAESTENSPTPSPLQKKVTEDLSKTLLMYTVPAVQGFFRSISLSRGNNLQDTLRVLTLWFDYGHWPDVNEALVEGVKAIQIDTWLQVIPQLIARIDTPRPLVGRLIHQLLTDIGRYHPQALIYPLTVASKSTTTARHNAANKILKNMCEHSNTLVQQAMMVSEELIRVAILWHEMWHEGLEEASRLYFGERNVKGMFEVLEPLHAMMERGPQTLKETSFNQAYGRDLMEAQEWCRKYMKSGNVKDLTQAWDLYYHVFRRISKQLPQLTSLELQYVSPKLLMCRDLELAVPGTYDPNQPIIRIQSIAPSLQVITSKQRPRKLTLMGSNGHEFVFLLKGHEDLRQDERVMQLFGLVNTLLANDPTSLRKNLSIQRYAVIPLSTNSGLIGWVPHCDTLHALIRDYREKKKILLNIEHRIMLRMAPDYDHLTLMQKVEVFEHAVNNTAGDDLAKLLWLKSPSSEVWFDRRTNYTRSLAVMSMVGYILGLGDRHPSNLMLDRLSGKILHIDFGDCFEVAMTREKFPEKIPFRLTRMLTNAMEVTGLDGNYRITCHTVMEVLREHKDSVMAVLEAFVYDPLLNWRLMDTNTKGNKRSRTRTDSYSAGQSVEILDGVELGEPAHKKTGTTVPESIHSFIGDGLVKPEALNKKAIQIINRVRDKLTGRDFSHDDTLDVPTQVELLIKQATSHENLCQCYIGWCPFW
Kind of test: In Vitro mTOR Kinase Assay (Echo), Test (a)(ii). It is filed as biochemical. As to conditions: table of enzyme assay Test (a)(ii); read-out: Test (a)(ii) IC50. The essentials: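 FLAG-tagged human mTOR truncation (residues 1362-2549) expressed in HEK293 cells and FLAG-purified. Compounds dispensed acoustically, reaction 2 h at room temperature, stopped with EDTA. Phosphorylation of biotinylated peptide detected by AlphaScreen with anti-p70 S6K (T389) antibody overnight; IC50 reported.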
`O=C(NCCO)Nc1ccc(-c2nc(N3CCOCC3)cc(C3(S(=O)(=O)c4ccccn4)CC3)n2)cc1` [Example 56c, 3-(2-hydroxyethyl)-1-[4-[4-morpholin-4-yl-6-(1-pyridin-2-ylsulfonylcyclopropyl)pyrimidin-2-yl]phenyl]urea]: the IC50 came to 6.23 nM.
Take `Cn1cc(NC(=O)Nc2ccc(-c3nc(N4CCOCC4)cc(C4(S(=O)(=O)c5ccccn5)CC4)n3)cc2)cn1` [Example 56d, 3-(1-methylpyrazol-4-yl)-1-[4-[4-morpholin-4-yl-6-(1-pyridin-2-ylsulfonylcyclopropyl)pyrimidin-2-yl]phenyl]urea]: the IC50 turned out to be 4.3 nM.
As for `CNC(=O)Nc1ccc(-c2nc(N3CCOC[C@@H]3C)cc(C3(S(=O)(=O)c4ccc(NC)cc4F)CC3)n2)cc1` [Example 57, 1-[4-[4-[1-(2-Fluoro-4-methylaminophenyl)sulfonylcyclopropyl]-6-[(3S)-3-methylmorpholin-4-yl]pyrimidin-2-yl]phenyl]-3-methylurea], the figure is 11.9 nM; as for `C[C@H]1COCCN1c1cc(C2(S(=O)(=O)c3ccc(F)cc3F)CC2)nc(-c2ccc(NC(=O)NC3CC3)cc2)n1` [Example 57a, 3-cyclopropyl-1-[4-[4-[1-(2,4-difluorophenyl)sulfonylcyclopro-pyl]-6-[(3S)-3-methylmorpholin-4-yl]pyrimidin-2-yl]phenyl]urea], 10.4 nM.
Regarding `C[C@H]1COCCN1c1cc(C2(S(=O)(=O)c3ccc(F)cc3F)CC2)nc(-c2ccc(NC(=O)NCCF)cc2)n1` [Example 57c, 1-[4-[4-[1-(2,4-difluorophenyl)sulfonylcyclopro-pyl]-6-[(3S)-3-methylmorpholin-4-yl]pyrimidin-2-yl]phenyl]-3-(2-fluoroethyl)urea], the IC50 came to 6.95 nM.
As for `CCNC(=O)Nc1ccc(-c2nc(N3CCOC[C@@H]3C)cc(C3(S(=O)(=O)c4ccc(F)cc4F)CC3)n2)cc1` [Example 57e, 3-[4-[4-[1-(2,4-difluorophenyl)sulfonylcyclopro-pyl]-6-[(3S)-3-methylmorpholin-4-yl]pyrimidin-2-yl]phenyl]-1-ethylurea], the figure is 7.28 nM; as for `C[C@H]1COCCN1c1cc(C2(S(=O)(=O)c3ccc(F)cc3F)CC2)nc(-c2ccc(NC(=O)Nc3cnn(C)c3)cc2)n1` [Example 57f, 1-[4-[4-[1-(2,4-difluorophenyl)sulfonylcyclopro-pyl]-6-[(3S)-3-methylmorpholin-4-yl]pyrimidin-2-yl]phenyl]-3-(1-methylpyrazol-4-yl)urea], 10.6 nM; as for `C[C@H]1COCCN1c1cc(C2(S(=O)(=O)c3ccc(F)cc3F)CC2)nc(-c2ccc(NC(=O)NCC3(O)CC3)cc2)n1` [Example 57g, 1-[4-[4-[1-(2,4-difluorophenyl)sulfonylcyclopro-pyl]-6-[(3S)-3-methylmorpholin-4-yl]pyrimidin-2-yl]phenyl]-3-[(1-hydroxycyclopropyl)methyl]urea], 58.5 nM.
As for `CNC(=O)Nc1ccc(-c2nc(N3CCOC[C@@H]3C)cc(C3(S(=O)(=O)c4ccccc4F)CC3)n2)cc1` [Example 58, 1-[4-[4-[1-(2-Fluorophenyl)sulfonylcyclopropyl]-6-[(3S)-3-methylmorpholin-4-yl]pyrimidin-2-yl]phenyl]-3-methylurea], the figure is 1.15 nM; as for `C[C@H]1COCCN1c1cc(C2(S(=O)(=O)c3ccccc3F)CC2)nc(-c2ccc(NC(=O)NC3CC3)cc2)n1` [Example 58a, 3-cyclopropyl-1-[4-[4-[1-(2-fluorophenyl)sulfonylcyclopropyl]-6-[(3S)-3-methylmorpholin-4-yl]pyrimidin-2-yl]phenyl]urea], 3.39 nM.
As for `C[C@H]1COCCN1c1cc(C2(S(=O)(=O)c3ccccc3F)CC2)nc(-c2ccc(NC(=O)NCCO)cc2)n1` [Example 58b, 1-[4-[4-[1-(2-fluorophenyl)sulfonylcyclopropyl]-6-[(3S)-3-methylmorpholin-4-yl]pyrimidin-2-yl]phenyl]-3-(2-hydroxyethyl)urea], the figure is 2 nM; as for `C[C@H]1COCCN1c1cc(C2(S(=O)(=O)c3ccccc3F)CC2)nc(-c2ccc(NC(=O)NCCF)cc2)n1` [Example 58c, 3-(2-fluoroethyl)-1-[4-[4-[1-(2-fluorophenyl)sulfonylcyclopropyl]-6-[(3S)-3-methylmorpholin-4-yl]pyrimidin-2-yl]phenyl]urea], 3.27 nM; as for `C[C@H]1COCCN1c1cc(C2(S(=O)(=O)c3ccccc3F)CC2)nc(-c2ccc(NC(=O)NCC(F)F)cc2)n1` [Example 58d, 3-(2,2-difluoroethyl)-1-[4-[4-[1-(2-fluorophenyl)sulfonylcyclopropyl]-6-[(3S)-3-methylmorpholin-4-yl]pyrimidin-2-yl]phenyl]urea], 2.93 nM.
For `CCNC(=O)Nc1ccc(-c2nc(N3CCOC[C@@H]3C)cc(C3(S(=O)(=O)c4ccccc4F)CC3)n2)cc1` [Example 58e, 1-ethyl-3-[4-[4-[1-(2-fluorophenyl)sulfonylcyclopropyl]-6-[(3S)-3-methylmorpholin-4-yl]pyrimidin-2-yl]phenyl]urea], the IC50 amounted to 2.56 nM.
Regarding `C[C@H]1COCCN1c1cc(C2(S(=O)(=O)c3ccccc3F)CC2)nc(-c2ccc(NC(=O)Nc3cnn(C)c3)cc2)n1` [Example 58f, 1-[4-[4-[1-(2-fluorophenyl)sulfonylcyclopropyl]-6-[(3S)-3-methylmorpholin-4-yl]pyrimidin-2-yl]phenyl]-3-(1-methylpyrazol-4-yl)urea], the IC50 amounted to 2.67 nM.
Next, `C[C@H]1COCCN1c1cc(C2(S(=O)(=O)c3ccccc3F)CC2)nc(-c2ccc(NC(=O)NCC3(O)CC3)cc2)n1` [Example 58g, 1-[4-[4-[1-(2-fluorophenyl)sulfonylcyclopropyl]-6-[(3S)-3-methylmorpholin-4-yl]pyrimidin-2-yl]phenyl]-3-[(1-hydroxycyclopropyl)methyl]urea]: 10.2 nM.
With `CNC(=O)Nc1ccc(-c2nc(N3CCOC[C@@H]3C)cc(C3(S(=O)(=O)c4c(C)noc4C)CC3)n2)cc1` [Example 59], the IC50 turned out to be 8.82 nM.
Regarding `Cc1noc(C)c1S(=O)(=O)C1(c2cc(N3CCOC[C@@H]3C)nc(-c3ccc(NC(=O)NC4CC4)cc3)n2)CC1` [Example 59a, 3-cyclopropyl-1-[4-[4-[1-[(3,5-dimethyl-1,2-oxazol-4-yl)sulfonyl]cyclopropyl]-6-[(3S)-3-methylmorpholin-4-yl]pyrimidin-2-yl]phenyl]urea], the IC50 is 22.2 nM.
On to `Cc1noc(C)c1S(=O)(=O)C1(c2cc(N3CCOC[C@@H]3C)nc(-c3ccc(NC(=O)NCCO)cc3)n2)CC1` [Example 59b, 1-[4-[4-[1-[(3,5-dimethyl-1,2-oxazol-4-yl)sulfonyl]cyclopropyl]-6-[(3S)-3-methylmorpholin-4-yl]pyrimidin-2-yl]phenyl]-3-(2-hydroxyethyl)urea], for which the IC50 is 9.93 nM.
On to `Cc1noc(C)c1S(=O)(=O)C1(c2cc(N3CCOC[C@@H]3C)nc(-c3ccc(NC(=O)NCCF)cc3)n2)CC1` [Example 59c, 1-[4-[4-[1-[(3,5-dimethyl-1,2-oxazol-4-yl)sulfonyl]cyclopropyl]-6-[(3S)-3-methylmorpholin-4-yl]pyrimidin-2-yl]phenyl]-3-(2-fluoroethyl)urea], for which the IC50 came to 22.6 nM.
As for `Cc1noc(C)c1S(=O)(=O)C1(c2cc(N3CCOC[C@@H]3C)nc(-c3ccc(NC(=O)NCC(F)F)cc3)n2)CC1` [Example 59d, 3-(2,2-difluoroethyl)-1-[4-[4-[1-[(3,5-dimethyl-1,2-oxazol-4-yl)sulfonyl]cyclopropyl]-6-[(3S)-3-methylmorpholin-4-yl]pyrimidin-2-yl]phenyl]urea], the figure is 32 nM.
For the compound `Cc1noc(C)c1S(=O)(=O)C1(c2cc(N3CCOC[C@@H]3C)nc(-c3ccc(NC(=O)NCC4(O)CC4)cc3)n2)CC1` [Example 59e, 1-[4-[4-[1-[(3,5-dimethyl-1,2-oxazol-4-yl)sulfonyl]cyclopropyl]-6-[(3S)-3-methylmorpholin-4-yl]pyrimidin-2-yl]phenyl]-3-[(1-hydroxycyclopropyl)methyl]urea], the IC50 was 293 nM.
As for `CCNC(=O)Nc1ccc(-c2nc(N3CCOC[C@@H]3C)cc(C3(S(=O)(=O)c4c(C)noc4C)CC3)n2)cc1` [Example 59f, 3-[4-[4-[1-[(3,5-dimethyl-1,2-oxazol-4-yl)sulfonyl]cyclopropyl]-6-[(3S)-3-methylmorpholin-4-yl]pyrimidin-2-yl]phenyl]-1-ethylurea], the figure is 49.1 nM; as for `Cc1noc(C)c1S(=O)(=O)C1(c2cc(N3CCOC[C@@H]3C)nc(-c3ccc(NC(=O)Nc4cnn(C)c4)cc3)n2)CC1` [Example 59g, 1-[4-[4-[1-[(3,5-dimethyl-1,2-oxazol-4-yl)sulfonyl]cyclopropyl]-6-[(3S)-3-methylmorpholin-4-yl]pyrimidin-2-yl]phenyl]-3-(1-methylpyrazol-4-yl)urea], 101 nM.
Next, `CNC(=O)Nc1ccc(-c2nc(N3CCOC[C@@H]3C)cc(C3(S(=O)(=O)c4cc(F)ccc4F)CC3)n2)cc1` [Example 60, 1-[4-[4-[1-(2,5-Difluorophenyl)sulfonylcyclopropyl]-6-[(3S)-3-methylmorpholin-4-yl]pyrimidin-2-yl]phenyl]-3-methylurea]: 12 nM; `C[C@H]1COCCN1c1cc(C2(S(=O)(=O)c3cc(F)ccc3F)CC2)nc(-c2ccc(NC(=O)NC3CC3)cc2)n1` [Example 60a, 3-cyclopropyl-1-[4-[4-[1-(2,5-difluorophenyl)sulfonylcyclopropyl]-6-[(3S)-3-methylmorpholin-4-yl]pyrimidin-2-yl]phenyl]urea]: 19.1 nM; `C[C@H]1COCCN1c1cc(C2(S(=O)(=O)c3cc(F)ccc3F)CC2)nc(-c2ccc(NC(=O)NCCO)cc2)n1` [Example 60b, 1-[4-[4-[1-(2,5-difluorophenyl)sulfonylcyclopropyl]-6-[(3S)-3-methylmorpholin-4-yl]pyrimidin-2-yl]phenyl]-3-(2-hydroxyethyl)urea]: 8.62 nM.
